Source: ChEMBL document CHEMBL1649271, “In vitro sensitivity testing of Leishmania clinical field isolates: preconditioning of promastigotes enhances infectivity for macrophage host cells” (Antimicrob Agents Chemother, 2009)
Each block holds one compound with its values, some of them ahead of it.

Tests used:
Leishmania donovani [1] = assay: Antileishmanial activity against Leishmania donovani BPK043 amastigotes infected in Swiss mouse primary peritoneal mouse macrophages assessed as reduction of total parasite burden after 5 days; assay type: functional, organism-based
Leishmania donovani [2] = assay: Antileishmanial activity against Leishmania donovani BPK091 amastigotes infected in Swiss mouse primary peritoneal mouse macrophages assessed as reduction of total parasite burden after 5 days; assay type: functional, organism-based
Leishmania donovani [3] = assay: Antileishmanial activity against Leishmania donovani BPK178 amastigotes infected in Swiss mouse primary peritoneal mouse macrophages assessed as reduction of total parasite burden after 5 days; assay type: functional, organism-based
Leishmania donovani [4] = assay: Antileishmanial activity against Leishmania donovani BPK206 amastigotes infected in Swiss mouse primary peritoneal mouse macrophages assessed as reduction of total parasite burden after 5 days; assay type: functional, organism-based
Leishmania donovani [5] = assay: Antileishmanial activity against Leishmania donovani BPK206cl amastigotes infected in Swiss mouse primary peritoneal mouse macrophages assessed as reduction of total parasite burden after 5 days; assay type: functional, organism-based
Leishmania donovani [6] = assay: Antileishmanial activity against Leishmania donovani BPK274 amastigotes infected in Swiss mouse primary peritoneal mouse macrophages assessed as reduction of total parasite burden after 5 days; assay type: functional, organism-based
Leishmania donovani [7] = assay: Antileishmanial activity against Leishmania donovani BPK294 amastigotes infected in Swiss mouse primary peritoneal mouse macrophages assessed as reduction of total parasite burden after 5 days; assay type: functional, organism-based
Leishmania donovani [8] = assay: Antileishmanial activity against Leishmania donovani BPK298 amastigotes infected in Swiss mouse primary peritoneal mouse macrophages assessed as reduction of total parasite burden after 5 days; assay type: functional, organism-based
Leishmania donovani [9] = assay: Antileishmanial activity against Leishmania donovani BPK177 amastigotes infected in Swiss mouse primary peritoneal mouse macrophages assessed as reduction of total parasite burden after 5 days; assay type: functional, organism-based
Leishmania donovani [10] = assay: Antileishmanial activity against Leishmania donovani BPK190 amastigotes infected in Swiss mouse primary peritoneal mouse macrophages assessed as reduction of total parasite burden after 5 days; assay type: functional, organism-based
Leishmania donovani [11] = assay: Antileishmanial activity against Leishmania donovani BPK190cl amastigotes infected in Swiss mouse primary peritoneal mouse macrophages assessed as reduction of total parasite burden after 5 days; assay type: functional, organism-based
Leishmania guyanensis [12] = assay: Antileishmanial activity against Leishmania guyanensis PER106 amastigotes infected in Swiss mouse primary peritoneal mouse macrophages assessed as reduction of total parasite burden after 5 days; assay type: functional, organism-based
Leishmania guyanensis [13] = assay: Antileishmanial activity against Leishmania guyanensis PER008 amastigotes infected in Swiss mouse primary peritoneal mouse macrophages assessed as reduction of total parasite burden after 5 days; assay type: functional, organism-based
Leishmania guyanensis [14] = assay: Antileishmanial activity against Leishmania guyanensis PER054 amastigotes infected in Swiss mouse primary peritoneal mouse macrophages assessed as reduction of total parasite burden after 5 days; assay type: functional, organism-based
Leishmania guyanensis [15] = assay: Antileishmanial activity against Leishmania guyanensis PER072 amastigotes infected in Swiss mouse primary peritoneal mouse macrophages assessed as reduction of total parasite burden after 5 days; assay type: functional, organism-based
Leishmania guyanensis [16] = assay: Antileishmanial activity against Leishmania guyanensis PER080 amastigotes infected in Swiss mouse primary peritoneal mouse macrophages assessed as reduction of total parasite burden after 5 days; assay type: functional, organism-based
Leishmania braziliensis [17] = assay: Antileishmanial activity against Leishmania braziliensis PER002cl amastigotes infected in Swiss mouse primary peritoneal mouse macrophages assessed as reduction of total parasite burden after 5 days; assay type: functional, organism-based
Leishmania braziliensis [18] = assay: Antileishmanial activity against Leishmania braziliensis PER005cl amastigotes infected in Swiss mouse primary peritoneal mouse macrophages assessed as reduction of total parasite burden after 5 days; assay type: functional, organism-based
Leishmania donovani [19] = assay: Activity index, ratio of IC50 for Leishmania donovani BPK091 to IC50 for Leishmania donovani BPK043; assay type: functional, organism-based
Leishmania donovani [20] = assay: Activity index, ratio of IC50 for Leishmania donovani BPK178 to IC50 for Leishmania donovani BPK043; assay type: functional, organism-based
Leishmania donovani [21] = assay: Activity index, ratio of IC50 for Leishmania donovani BPK206 to IC50 for Leishmania donovani BPK043; assay type: functional, organism-based
Leishmania donovani [22] = assay: Activity index, ratio of IC50 for Leishmania donovani BPK206cl to IC50 for Leishmania donovani BPK043; assay type: functional, organism-based
Leishmania donovani [23] = assay: Activity index, ratio of IC50 for Leishmania donovani BPK274 to IC50 for Leishmania donovani BPK043; assay type: functional, organism-based
Leishmania donovani [24] = assay: Activity index, ratio of IC50 for Leishmania donovani BPK294 to IC50 for Leishmania donovani BPK043; assay type: functional, organism-based
Leishmania donovani [25] = assay: Activity index, ratio of IC50 for Leishmania donovani BPK298 to IC50 for Leishmania donovani BPK043; assay type: functional, organism-based
Leishmania donovani [26] = assay: Activity index, ratio of IC50 for Leishmania donovani BPK177 to IC50 for Leishmania donovani BPK043; assay type: functional, organism-based
Leishmania donovani [27] = assay: Activity index, ratio of IC50 for Leishmania donovani BPK190 to IC50 for Leishmania donovani BPK043; assay type: functional, organism-based
Leishmania donovani [28] = assay: Activity index, ratio of IC50 for Leishmania donovani BPK190cl to IC50 for Leishmania donovani BPK043; assay type: functional, organism-based
Leishmania guyanensis [29] = assay: Activity index, ratio of IC50 for Leishmania guyanensis PER008 to IC50 for Leishmania guyanensis PER106; assay type: functional, organism-based
Leishmania guyanensis [30] = assay: Activity index, ratio of IC50 for Leishmania guyanensis PER054 to IC50 for Leishmania guyanensis PER106; assay type: functional, organism-based
Leishmania guyanensis [31] = assay: Activity index, ratio of IC50 for Leishmania guyanensis PER072 to IC50 for Leishmania guyanensis PER106; assay type: functional, organism-based
Leishmania guyanensis [32] = assay: Activity index, ratio of IC50 for Leishmania guyanensis PER080 to IC50 for Leishmania guyanensis PER106; assay type: functional, organism-based
[33] = Activity index, ratio of IC50 for Leishmania braziliensis PER002cl to IC50 for Leishmania guyanensis PER106; assay type: functional
[34] = Activity index, ratio of IC50 for Leishmania braziliensis PER005cl to IC50 for Leishmania guyanensis PER106; assay type: functional

Compound: CCCCCCCCCCCCCCCCOP(=O)([O-])OCC[N+](C)(C)C [MILTEFOSINE]
- IC50 (Leishmania donovani [1]; Leishmania donovani, BPK043, 120 h, read-out: IC50): 1.5 µM
- IC50 (Leishmania donovani [2]; Leishmania donovani, BPK091, 120 h, read-out: IC50): 3.2 µM
- IC50 (Leishmania donovani [3]; Leishmania donovani, BPK178, 120 h, read-out: IC50): 5.5 µM
- IC50 (Leishmania donovani [4]; Leishmania donovani, BPK206, 120 h, read-out: IC50): 4 µM
- IC50 (Leishmania donovani [5]; Leishmania donovani, BPK206cl, 120 h, read-out: IC50): 2 µM
- IC50 (Leishmania donovani [6]; Leishmania donovani, BPK274, 120 h, read-out: IC50): 7.1 µM
- IC50 (Leishmania donovani [7]; Leishmania donovani, BPK294, 120 h, read-out: IC50): 3 µM
- IC50 (Leishmania donovani [8]; Leishmania donovani, BPK298, 120 h, read-out: IC50): 3.4 µM
- IC50 (Leishmania donovani [9]; Leishmania donovani, BPK177, 120 h, read-out: IC50): 2 µM
- IC50 (Leishmania donovani [10]; Leishmania donovani, BPK190, 120 h, read-out: IC50): 4.5 µM
- IC50 (Leishmania donovani [11]; Leishmania donovani, BPK190cl, 120 h, read-out: IC50): 3 µM
- IC50 (Leishmania guyanensis [12]; Leishmania guyanensis, PER106, 120 h, read-out: IC50): 10 µM
- IC50 (Leishmania guyanensis [13]; Leishmania guyanensis, PER008, 120 h, read-out: IC50): 5 µM
- IC50 (Leishmania guyanensis [14]; Leishmania guyanensis, PER054, 120 h, read-out: IC50): 9.5 µM
- IC50 (Leishmania guyanensis [15]; Leishmania guyanensis, PER072, 120 h, read-out: IC50): 10 µM
- IC50 (Leishmania guyanensis [16]; Leishmania guyanensis, PER080, 120 h, read-out: IC50): 7.5 µM
- IC50 (Leishmania braziliensis [17]; Leishmania braziliensis, PER002cl, 120 h, read-out: IC50): 10.3 µM
- IC50 (Leishmania braziliensis [18]; Leishmania braziliensis, PER005cl, 120 h, read-out: IC50): 10 µM

- IC50 (Leishmania donovani [1]): 6 µg/mL
- IC50 (Leishmania donovani [2]): 24.2 µg/mL
- IC50 (Leishmania donovani [3]): 21.8 µg/mL
- IC50 (Leishmania donovani [4]): 11 µg/mL
- IC50 (Leishmania donovani [5]): 5 µg/mL
- IC50 (Leishmania donovani [6]): 16.2 µg/mL
- IC50 (Leishmania donovani [7]): 6 µg/mL
- IC50 (Leishmania donovani [8]): 12 µg/mL
- IC50 (Leishmania donovani [9]): 32 µg/mL
- IC50 (Leishmania donovani [10]): 27.3 µg/mL
- IC50 (Leishmania donovani [11]): 24 µg/mL
- IC50 (Leishmania guyanensis [12]): 12 µg/mL
- IC50 (Leishmania guyanensis [13]): 18 µg/mL
- IC50 (Leishmania guyanensis [14]): 18 µg/mL
- IC50 (Leishmania guyanensis [15]): 19 µg/mL
- IC50 (Leishmania guyanensis [16]): 14.5 µg/mL
- IC50 (Leishmania braziliensis [17]): 13.5 µg/mL
- IC50 (Leishmania braziliensis [18]): 25 µg/mL
Compound: POTASSIUM ANTIMONYL TARTRATE TRIHYDRATE [listing 1 of 2 here]

Compound: POTASSIUM ANTIMONYL TARTRATE TRIHYDRATE [listing 2 of 2 here]
- Ratio IC50 (Leishmania donovani [19]): 3.9
- Ratio IC50 (Leishmania donovani [20]): 3.6
- Ratio IC50 (Leishmania donovani [21]): 1.8
- Ratio IC50 (Leishmania donovani [22]): 0.8
- Ratio IC50 (Leishmania donovani [23]): 2.7
- Ratio IC50 (Leishmania donovani [24]): 1
- Ratio IC50 (Leishmania donovani [25]): 2
- Ratio IC50 (Leishmania donovani [26]): 5.3
- Ratio IC50 (Leishmania donovani [27]): 4.5
- Ratio IC50 (Leishmania donovani [28]): 4
- Ratio IC50 (Leishmania guyanensis [29]): 1.6
- Ratio IC50 (Leishmania guyanensis [30]): 1.6
- Ratio IC50 (Leishmania guyanensis [31]): 1.6
- Ratio IC50 (Leishmania guyanensis [32]): 1.4
- Ratio IC50 [33]: 1.3
- Ratio IC50 [34]: 2.4

Compound: sodium stibogluconate
- Ratio IC50 (Leishmania donovani [19]): 3.2
- Ratio IC50 (Leishmania donovani [20]): 3.1
- Ratio IC50 (Leishmania donovani [21]): 3.6
- Ratio IC50 (Leishmania donovani [22]): 5.5
- Ratio IC50 (Leishmania donovani [23]): 3.2
- Ratio IC50 (Leishmania donovani [24]): 1.5
- Ratio IC50 (Leishmania donovani [25]): 1.9
- Ratio IC50 (Leishmania donovani [26]): 6.6
- Ratio IC50 (Leishmania donovani [27]): 6.6
- Ratio IC50 (Leishmania donovani [28]): 4.2
- Ratio IC50 (Leishmania guyanensis [29]): 3.2
- Ratio IC50 (Leishmania guyanensis [30]): 4
- Ratio IC50 (Leishmania guyanensis [31]): 6
- Ratio IC50 (Leishmania guyanensis [32]): 2.5
- Ratio IC50 [33]: 4.5
- Ratio IC50 [34]: 5.8
